What was measured:
Assay type in all cases: binding
CxD7L1 [1] = target: T1, CxD7L1 (Culex quinquefasciatus, UniProt A0A1S4K3K8); assay: crystal structure ([…] Å) and ITC; set-up: gene D7L1; mature protein
Target sequence in this assay (A0A1S4K3K8 17-311): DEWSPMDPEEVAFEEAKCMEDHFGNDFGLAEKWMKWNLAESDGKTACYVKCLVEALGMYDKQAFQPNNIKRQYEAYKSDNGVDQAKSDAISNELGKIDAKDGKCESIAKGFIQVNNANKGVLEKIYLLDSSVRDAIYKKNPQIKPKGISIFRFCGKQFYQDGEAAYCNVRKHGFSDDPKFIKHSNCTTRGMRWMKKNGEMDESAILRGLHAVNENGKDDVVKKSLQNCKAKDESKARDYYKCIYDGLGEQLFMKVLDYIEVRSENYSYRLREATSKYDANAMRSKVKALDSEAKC

CxD7L1 [2] = target: T1, CxD7L1; assay: ITC; set-up: gene D7L1; mature protein, C-terminal 6x-His, HEK293
Target sequence in this assay (A0A1S4K3K8 17-311 limits assumed): as the sequence (A0A1S4K3K8 17-311) above

CxD7L2 = target: T2, CxD7L2 (Culex quinquefasciatus, UniProt B0X6Z1); assay: ITC
T2 construct: gene D7L2; full-length mature protein, C-terminal 6x-His, HEK293
T2 sequence (B0X6Z1 21-313 limits assumed): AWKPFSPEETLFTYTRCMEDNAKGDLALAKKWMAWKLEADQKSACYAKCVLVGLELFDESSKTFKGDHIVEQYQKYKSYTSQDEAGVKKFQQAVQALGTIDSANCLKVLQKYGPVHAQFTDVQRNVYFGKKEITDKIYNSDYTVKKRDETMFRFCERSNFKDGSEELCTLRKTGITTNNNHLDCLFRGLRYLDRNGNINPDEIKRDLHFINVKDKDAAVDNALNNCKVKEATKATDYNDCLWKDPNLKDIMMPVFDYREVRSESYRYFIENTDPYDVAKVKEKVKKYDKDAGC

Compound: Nc1ncnc2c1ncn2[C@@H]1O[C@H](COP(=O)(O)OP(=O)(O)O)[C@@H](O)[C@H]1O [ADP]
- Kd (CxD7L1 [1]): 32.7 nM

Compound: Nc1ncnc2c1ncn2[C@@H]1O[C@H](CO)[C@@H](O)[C@H]1O [Adenosine]
- Kd (CxD7L1 [2]): 313 nM

Compound: CNC[C@H](O)c1ccc(O)c(O)c1 [Epinephrine]
- Kd (CxD7L2): 226 nM

Source: article PMC7283271, “ADP binding by the Culex quinquefasciatus mosquito D7 salivary protein enhances blood feeding on mammals” (Nature Communications, 2020)
